The values that follow come from US9725445B2, “Cycloalkyl nitrile pyrazolo pyridones as Janus kinase inhibitors” (Merck Sharp & Dohme Corp., priority 2013, dated 2017).

Chain of JAK1 (P23458 875-1153): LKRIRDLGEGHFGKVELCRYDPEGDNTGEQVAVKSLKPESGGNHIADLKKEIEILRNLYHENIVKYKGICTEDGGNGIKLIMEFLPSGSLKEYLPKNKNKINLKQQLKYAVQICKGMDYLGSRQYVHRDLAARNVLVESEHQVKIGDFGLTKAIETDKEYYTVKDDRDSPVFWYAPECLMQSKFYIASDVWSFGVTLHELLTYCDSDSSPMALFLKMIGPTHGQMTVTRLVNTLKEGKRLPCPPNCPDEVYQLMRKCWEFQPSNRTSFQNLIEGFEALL

One experiment concerns the target JAK1 (Homo sapiens (Human), UniProt P23458). Put plainly: Jak biochemical HTRF assay, JAK1. To be noted: HTRF biochemical assay, recombinant GST-tagged catalytic domain; read-out: JAK1 IC50.
`N#C[C@H]1CCCC[C@@H]1n1nc(Nc2ccc3c(c2)CN(C2CCOCC2)S3(=O)=O)c2c(=O)[nH]ccc21` [Example 15-44, (1S,2S)-2-(3-{[1,1-dioxido-2-(tetrahydro-2H-pyran-4-yl)-2,3-dihydro-1,2-benzisothiazol-5-yl]amino}-4-oxo-4,5-dihydro-1H-pyrazolo[4,3-c]pyridin-1-yl)cyclohexanecarbonitrile]: the IC50 came to 0.057 nM.

In the case of `N#C[C@H]1CCCC[C@@H]1n1nc(Nc2ccc([C@]3(O)CC[C@H](C(=O)O)CC3)cc2)c2c(=O)[nH]ccc21` [Example 17-2], the IC50 is 0.53 nM.

In a further experiment the target is JAK2 (Homo sapiens (Human), UniProt O60674). Put plainly: Jak biochemical HTRF assay, JAK2. To be noted: HTRF biochemical assay, recombinant GST-tagged catalytic domain; read-out: JAK2 IC50. As for the experimental part: Jak Biochemical HTRF Assay Protocol
Chain of JAK2 (O60674 849-1124): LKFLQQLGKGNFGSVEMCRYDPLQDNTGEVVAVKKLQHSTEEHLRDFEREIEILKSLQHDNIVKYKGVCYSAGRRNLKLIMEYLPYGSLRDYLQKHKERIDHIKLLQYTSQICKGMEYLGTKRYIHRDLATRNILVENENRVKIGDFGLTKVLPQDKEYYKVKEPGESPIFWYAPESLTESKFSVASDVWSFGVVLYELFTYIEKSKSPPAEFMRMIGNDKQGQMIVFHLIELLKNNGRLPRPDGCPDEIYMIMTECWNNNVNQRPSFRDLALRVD
The ability of compounds to inhibit the activity of JAK1, JAK2, JAK3, and Tyk2 was measured using a recombinant purified GST-tagged catalytic domain for each enzyme (Invitrogen JAK1 #M4290, JAK2 #M4290, JAK3 #M4290, Tyk2 #M4290) in an HTRF format biochemical assay. […] The basic assay protocol is as follows: First, 250 nL of diluted compounds in DMSO were dispensed into the wells of a dry 384-well Black plate (Greiner #781076) using a Labcyte Echo 555 acoustic dispenser. Subsequent reagent additions employed an Agilent Bravo. […] After equilibration, 2 μL of 10×ATP in 1× assay buffer was added to initiate the kinase reaction and the plates were shaken and then incubated at room temperature for 120 minutes. […] Plates were shaken and centrifuged and then incubated 60 minutes at room temperature and then read on a Perkin Elmer Envision (λex=337 nm, λem=665 and 615 nm, TRF delay time=20 μs). HTRF signal=10,000*665 nm reading/615 nm reading. After normalization to untreated controls, the percent inhibition of the HTRF signal at each compound concentration was calculated. The plot of percent inhibition versus the log of compound concentration was fit with a 4-parameter dose response equation to calculate IC50 values.
Final Reaction Conditions were:
Examples of the instant invention were evaluated in JAK1 and JAK2 in vitro binding assays.
On the technique in general: TR-FRET usually uses a lanthanide donor and a delayed reading to cut background.
`N#C[C@H]1CCCC[C@@H]1n1nc(Nc2ccc(C(O)C(F)F)cc2)c2c(=O)[nH]ccc21` (mixture of isomers) [Example 10-1, Racemic-(1S,2S)-2-(3-((4-(2,2-difluoro-1-hydroxyethyl)phenyl)amino)-4-oxo-4,5-dihydro-1H-pyrazolo[4,3-c]pyridin-1-yl)cyclohexanecarbonitrile]: the IC50 was 0.61 nM.

As for `CC(C)S(=N)(=O)c1ccc(Nc2nn(C3CCC[C@@H]3C#N)c3cc[nH]c(=O)c23)cc1` (single isomer, unassigned) [Example 3-108, (1S,2S)-2-[3-({4-[(S or R)-S-(1-methylethyl)sulfonimidoyl]phenyl}amino)-4-oxo-4,5-dihydro-yl]cyclopentanecarbonitrile], the half-maximal inhibitory concentration (IC50) is 0.5 nM.

`CC(C)S(=N)(=O)c1ccc(Nc2nn(C3CCC[C@@H]3C#N)c3cc[nH]c(=O)c23)cc1` (single isomer, unassigned) [Example 3-109, (1S,2S)-2-[3-({4-[(S or R)-S-(1-methylethyl)sulfonimidoyl]phenyl}amino)-4-oxo-4,5-dihydro-1H-pyrazolo[4,3-c]pyridin-1-yl]cyclopentanecarbonitrile]: the concentration for half-maximal inhibition (IC50) was 0.47 nM.

Consider `CC(C)NC(c1ccc(Nc2nn([C@H]3CCC[C@@H]3C#N)c3cc[nH]c(=O)c23)cc1)C(F)(F)F` (single isomer, unassigned) [Example 3-115, (1S,2S)-2-{4-oxo-3-[(4-{(1R or 1S)-2,2,2-trifluoro-1-[(1-methylethyl)amino]ethyl}phenyl)amino]-4,5-dihydro-1H-pyrazolo[4,3-c]pyridin-1-yl}cyclopentanecarbonitrile], for which the IC50 is 0.33 nM.

As to `CC(C)NC(c1ccc(Nc2nn([C@H]3CCC[C@@H]3C#N)c3cc[nH]c(=O)c23)cc1)C(F)(F)F` (single isomer, unassigned) [Example 3-116, (1S,2S)-2-{4-oxo-3-[(4-{(1S or 1R)-2,2,2-trifluoro-1-[(1-methylethyl)amino]ethyl}phenyl)amino]-4,5-dihydro-1H-pyrazolo[4,3-c]pyridin-1-yl}cyclopentanecarbonitrile], the IC50 worked out at 0.2 nM.

For `CC(O)(c1ccc(Nc2nn([C@H]3CCC[C@@H]3C#N)c3cc[nH]c(=O)c23)cc1)C(F)(F)F` (single isomer, unassigned) [Example 3-138, (1S,2S)-2-[4-oxo-3-({4-[(1R or 1S)-2,2,2-trifluoro-1-hydroxy-1-methylethyl]phenyl}amino)-4,5-dihydro-1H-pyrazolo[4,3-c]pyridin-1-yl]cyclopentanecarbonitrile], the concentration for half-maximal inhibition (IC50) amounted to 0.66 nM.

On to `CC(O)(c1ccc(Nc2nn([C@H]3CCC[C@@H]3C#N)c3cc[nH]c(=O)c23)cc1)C(F)(F)F` (single isomer, unassigned) [Example 3-139, (1S,2S)-2-[4-oxo-3-({4-[(1R or 1S)-2,2,2-trifluoro-1-hydroxy-1-methylethyl]phenyl}amino)-4,5-dihydro-1H-pyrazolo[4,3-c]pyridin-1-yl]cyclopentanecarbonitrile], for which the concentration for half-maximal inhibition (IC50) was found to be 0.35 nM.

`N#C[C@H]1CCCC[C@@H]1n1nc(Nc2ccc3c(c2)C(O)C2(CCCCC2)S3(=O)=O)c2c(=O)[nH]ccc21` (single isomer, unassigned) [Example 3-174, (1S,2S)-2-(3-{[(3S or 3R)-3-hydroxy-1,1-dioxido-3H-spiro[1-benzothiophene-2,1′-cyclohexan]-5-yl]amino}-4-oxo-4,5-dihydro-1H-pyrazolo[4,3-c]pyridin-1-yl)cyclohexanecarbonitrile]: the IC50 was determined as 0.49 nM.

As for `N#C[C@H]1CCCC[C@@H]1n1nc(Nc2ccc3c(c2)C(O)C2(CCCCC2)S3(=O)=O)c2c(=O)[nH]ccc21` (single isomer, unassigned) [Example 3-175, (1S,2S)-2-(3-{[(3R or 3S)-3-hydroxy-1,1-dioxido-3H-spiro[1-benzothiophene-2,1′-cyclohexan]-5-yl]amino}-4-oxo-4,5-dihydro-1H-pyrazolo[4,3-c]pyridin-1-yl)cyclohexanecarbonitrile], the IC50 stood at 0.26 nM.

As for `CC(C)C(c1ccc(Nc2nn([C@H]3CCCC[C@@H]3C#N)c3cc[nH]c(=O)c23)cc1)n1ccnn1` (single isomer, unassigned) [Example 15-23, (1S,2S)-2-[3-({4-[(1R or 1S)-2-methyl-1-(1H-1,2,3-triazol-1-yl)propyl]phenyl}amino)-4-oxo-4,5-dihydro-1H-pyrazolo[4,3-c]pyridin-1-yl]cyclohexanecarbonitrile], the IC50 worked out at 0.25 nM.

As to `CC(C)C(c1ccc(Nc2nn([C@H]3CCCC[C@@H]3C#N)c3cc[nH]c(=O)c23)cc1)n1ccnn1` (single isomer, unassigned) [Example 15-24, (1S,2S)-2-[3-({4-[(1S or 1R)-2-methyl-1-(1H-1,2,3-triazol-1-yl)propyl]phenyl}amino)-4-oxo-4,5-dihydro-1H-pyrazolo[4,3-c]pyridin-1-yl]cyclohexanecarbonitrile], the IC50 stood at 0.27 nM.

For the compound `N#C[C@H]1CCCCC[C@@H]1n1nc(Nc2ccc3c(c2)CN(C2CCCC2)C3=O)c2c(=O)[nH]ccc21` (single isomer, unassigned) [Example 15-50, (1S,2S or 1R,2R)-2-{3-[(2-cyclopentyl-1-oxo-2,3-dihydro-1H-isoindol-5-yl)amino]-4-oxo-4,5-dihydro-1H-pyrazolo[4,3-c]pyridin-1-yl}cycloheptanecarbonitrile], the IC50 came out at 14 nM.

Turning to `N#C[C@@H]1CCCCC[C@H]1n1nc(Nc2ccc3c(c2)CN(C2CCCC2)C3=O)c2c(=O)[nH]ccc21` (single isomer, unassigned) [Example 15-52, (1R,2R or 1S,2S)-2-{3-[(2-cyclopentyl-1-oxo-2,3-dihydro-1H-isoindol-5-yl)amino]-4-oxo-4,5-dihydro-1H-pyrazolo[4,3-c]pyridin-1-yl}cycloheptanecarbonitrile], the 50% inhibitory concentration (IC50) amounted to 0.3 nM.

As for `CC(C)(C)S(=O)(=O)c1ccc(Nc2nn([C@H]3CC(F)(F)C[C@H]3C#N)c3cc[nH]c(=O)c23)cc1` (single isomer, unassigned) [Example 22-1, (1R,2S or 1S,2R)-2-(3-((4-(tert-Butylsulfonyl)phenyl)amino)-4-oxo-4,5-dihydro-1H-pyrazolo[4,3-c]pyridin-1-yl)-4,4-difluorocyclopentanecarbonitrile], the IC50 was determined as 3.5 nM.

Take `CC(C)(C)S(=O)(=O)c1ccc(Nc2nn([C@@H]3CC(F)(F)C[C@@H]3C#N)c3cc[nH]c(=O)c23)cc1` (single isomer, unassigned) [Example 22-2, (1S,2R or 1R,2S)-2-(3-((4-(tert-Butylsulfonyl)phenyl)amino)-4-oxo-4,5-dihydro-1H-pyrazolo[4,3-c]pyridin-1-yl)-4,4-difluorocyclopentanecarbonitrile]: the 50% inhibitory concentration (IC50) amounted to 21 nM.

With `CC(C)(C)S(=O)(=O)c1ccc(Nc2nn([C@@H]3CC(F)(F)C[C@H]3C#N)c3cc[nH]c(=O)c23)cc1` (single isomer, unassigned) [Example 22-3, (1R,2R or 1S,2S)-2-(3-{[4-(tert-butylsulfonyl)phenyl]amino}-4-oxo-4,5-dihydro-1H-pyrazolo[4,3-c]pyridin-1-yl)-4,4-difluorocyclopentanecarbonitrile], the IC50 came out at 17 nM.

`CC(C)(C)S(=O)(=O)c1ccc(Nc2nn([C@H]3CC(F)(F)C[C@@H]3C#N)c3cc[nH]c(=O)c23)cc1` (single isomer, unassigned) [Example 22-4, (1S,2S or 1R,2R)-2-(3-{[4-(tert-butylsulfonyl)phenyl]amino}-4-oxo-4,5-dihydro-1H-pyrazolo[4,3-c]pyridin-1-yl)-4,4-difluorocyclopentanecarbonitrile]: the IC50 is 0.35 nM.

On to `N#C[C@H]1CCCC[C@@H]1n1nc(Nc2ccc(C(O)C(F)F)cc2)c2c(=O)[nH]ccc21` (stereo partly drawn) [Example 3-70, (1S,2S)-2-(3-{[4-(2,2-difluoro-1-hydroxyethyl)phenyl]amino}-4-oxo-4,5-dihydro-1H-pyrazolo[4,3-c]pyridin-1-yl)cyclohexanecarbonitrile], for which the IC50 came to 0.61 nM.

In the case of `CC(O)(CCO)c1cc(Nc2nn([C@H]3CCCC[C@@H]3C#N)c3cc[nH]c(=O)c23)ccc1S(C)(=O)=O` (stereo partly drawn) [Example 3-86, (1S,2S)-2-(3-{[3-(1,3-dihydroxy-1-methylpropyl)-4-(methylsulfonyl)phenyl]amino}-4-oxo-4,5-dihydro-1H-pyrazolo[4,3-c]pyridin-1-yl)cyclohexanecarbonitrile], the IC50 worked out at 7.6 nM.

A word on the IC50: it is the concentration that inhibits the measured activity by half.
